Here are results for five compounds from US6027875A, “Receptor infection assay” (The Salk Institute for Biological Studies, priority 1991, dated 2000).

Assay [1] addresses T1, human glucocorticoid receptor (GR) (Homo sapiens, UniProt P04150).
T1 sequence (P04150 1-777): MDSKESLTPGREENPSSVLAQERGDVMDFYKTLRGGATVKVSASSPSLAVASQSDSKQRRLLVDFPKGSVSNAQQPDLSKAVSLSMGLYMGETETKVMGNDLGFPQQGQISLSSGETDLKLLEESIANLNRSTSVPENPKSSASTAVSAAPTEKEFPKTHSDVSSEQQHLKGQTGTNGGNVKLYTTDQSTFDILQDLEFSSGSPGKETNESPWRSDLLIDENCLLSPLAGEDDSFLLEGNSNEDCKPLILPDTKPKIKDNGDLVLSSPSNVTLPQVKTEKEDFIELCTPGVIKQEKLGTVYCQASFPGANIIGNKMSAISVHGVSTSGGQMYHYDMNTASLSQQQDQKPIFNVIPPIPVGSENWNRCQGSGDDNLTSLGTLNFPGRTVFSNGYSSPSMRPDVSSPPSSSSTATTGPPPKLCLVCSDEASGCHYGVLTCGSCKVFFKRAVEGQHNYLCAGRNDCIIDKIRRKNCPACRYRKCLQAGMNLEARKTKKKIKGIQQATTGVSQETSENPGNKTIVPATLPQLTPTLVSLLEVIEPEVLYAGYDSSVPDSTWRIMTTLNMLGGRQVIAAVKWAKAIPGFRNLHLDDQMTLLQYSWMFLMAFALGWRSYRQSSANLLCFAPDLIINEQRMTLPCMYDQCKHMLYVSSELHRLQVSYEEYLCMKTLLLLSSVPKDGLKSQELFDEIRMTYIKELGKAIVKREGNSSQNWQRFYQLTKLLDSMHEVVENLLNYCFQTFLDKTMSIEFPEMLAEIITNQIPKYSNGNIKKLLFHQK
As to the kind of experiment: Functional assay with recombinant receptor (hGR4) and reporter (MLUC3) viruses in 293 cells, luciferase activity. As to conditions: hGR4 + MLUC3 coinfected 293 cells; 22 hours after infection. An excerpt:
A reporter virus (MLUC3; also variously referred to as Ad3MLUC, MpCV3MTV-LUC-Ad and ADMLUC) was constructed containing the mouse mammary tumor virus LTR linked to the firefly luciferase cDNA with an SV40 polyadenylation signal (Hollenberg, et al., Cell 55, 899 (1988)) similar to the receptor virus hGR4 above. The two viruses, hGR4 and MLUC3, were coinfected into 293 cells growing in DMEM suplemented with 10% charcoal adsorbed fetal calf serum ±10^-7 M dexamethasone (dex), and cellular extracts were prepared by Triton X-100™ brand non-ionic surfactant lysis at 22 hours after infection. (Williams, et al., Anal. Biochem 176, 28 (1989)) These were tested for luciferase activity by incubating with ATP and luciferin in a suitable buffer system. (de Wet, et al., Mol. Cell Biol. 7, 725 (1987)). Light liberated in this reaction was measured using a luminometer.

The target of assay [2] is T1, human glucocorticoid receptor (GR). As to the kind of experiment: Detection of glucocorticoids: cells infected with hGR4 and MLUC3, luciferase activity. The format is cell-based. More on the design: expressed in transfected cells; host or cells: 293 cells (human embryonic kidney) infected with recombinant adenovirus hGR4 and reporter virus MLUC3; A3: 293 or CV-1 cells. The following applies: 10^-8 M cortisol, 18 hours p.i., read-out: Share of the maximal transcriptional response. As for the experimental part:
Cells were infected with hGR4 and MLUC3 recombinant adenoviruses in the presence of varying concentrations of cortisol from 10^-11 M to 10^-5 M in 3-fold dilution steps. At 18 hours p.i., lysates were prepared and luciferase activity was measured. Approximately 10% of the maximal transcriptional response was detected at 10^-8 M cortisol. Since standard assay volumes are 200 μl per well in a 96 sample microliter dish, this represents about 2×10^-12 mole or about 0.6 ng of cortisol.

For assay [3] the target is unchanged. Kind of assay: Luciferase-based coinfection assay with unpurified virus stocks in 293 or CV-1 cells. Set-up: expressed in transfected cells; host or cells: 293 cells (human embryonic kidney) infected with recombinant adenovirus hGR4 and reporter virus MLUC3; A3: 293 or CV-1 cells. As to conditions: 293 or CV-1 cells infected with both stocks, ten PFU/cell; lysates at twenty-two hours after infection. From the text: With the unpurified virus stocks, their ability to measure hormone-responsiveness was accomplished using various adrenocorticosteroid, in the luciferase based assay. Assuming that the titer of the viral stocks was approximately 10^8 PFU/ML, either 293 cells or CV-1 cells that have low endogenous GR levels were infected with both stocks at a multiplicity of infection equal to ten PFU/cell. At twenty-two hours after infection (empirically determined to be the time when maximal GR synthesis occurs by Western blot measurement of protein), cell lysates were prepared and tested for luciferase activity.
Within the concentration range of 10^-10 and 10^-5 M of corticosteroids, dose response curves were generated that appeared by all qualitative criteria to resemble the binding activities of those glucocorticoids for the receptor protein.

Turning to `C[C@]12CCC(=O)C=C1CC[C@@H]1[C@@H]2[C@@H](O)C[C@]2(C=O)[C@@H](C(=O)CO)CC[C@@H]12` [aldosterone], in assay [1], the “Luciferase response to dex mimicked by other adrenocorticosteroids” value (“Luciferase response to dex mimicked” below) is “mimicked”.
Consider `C[C@]12C[C@H](O)[C@H]3[C@@H](CCC4=CC(=O)CC[C@@]43C)[C@@H]1CC[C@@H]2C(=O)CO` [corticosterone], for which the “Luciferase response to dex mimicked” value in assay [1] is reported as “mimicked”.
`C[C@]12CCC(=O)C=C1CC[C@@H]1[C@@H]2[C@@H](O)C[C@@]2(C)[C@H]1CC[C@]2(O)C(=O)CO` [cortisol]: the “Luciferase response to dex mimicked” value in assay [1] is listed as “mimicked”. The activation at 0.01 µM in assay [2] is ~10%.
In the case of `CC1=C(/C=C/C(C)=C/C=C/C(C)=C/C(=O)O)C(C)(C)CCC1` [retinoic acid], in assay [3], the “Induction of luciferase activity (inducer in this system)” value is listed as “ineffective inducers”.
For estrogen, the “Luciferase response to dex mimicked” value in assay [1] is on record as “mimicked”. Further, the “Induction of luciferase activity (inducer in this system)” value in assay [3] was “ineffective inducers”.
